Assay results as given in patent US9850283B2, “Macrocyclic inhibitors of the PD-1/PD-L1 and CD80(B7-1)/PD-L1 protein/protein interactions” (BRISTOL-MYERS SQUIBB COMPANY, priority 2013, dated 2017).
pIC50: −log10 of the molar value. Like-named read-outs stand apart in the source and are kept apart here. Positions of bridges follow the written chain, without caps; N, C: chain ends. Non-standard residues stand in square brackets, D forms with d. Residues, ends and D or L forms follow the SMILES beside them. ξ: configuration not given here. Pro(5S-Me) = C[C@H]1CC[C@@H](C(=O)O)N1; Bta = N[C@@H](Cc1csc2ccccc12)C(=O)O; Hyp = O=C(O)[C@@H]1C[C@@H](O)CN1; NMeNle = CCCC[C@H](NC)C(=O)O; NMeM = CN[C@@H](CCSC)C(=O)O; NMeA = CN[C@@H](C)C(=O)O; ξhCys = NC(CCS)C(=O)O; ξC = NC(CS)C(=O)O

How the values were obtained:
Human PD-L1/PD-1 = molecular target: T1, Human PD-L1/PD-1 (Homo sapiens, UniProt Q9NZQ7); assay: HTRF PD-1-Ig/PD-L1-His binding assay (human PD-L1)
T1 construct: made in house; host or cells: HEK293T
T1 sequence (Q9NZQ7 with tags, fused parts or gaps): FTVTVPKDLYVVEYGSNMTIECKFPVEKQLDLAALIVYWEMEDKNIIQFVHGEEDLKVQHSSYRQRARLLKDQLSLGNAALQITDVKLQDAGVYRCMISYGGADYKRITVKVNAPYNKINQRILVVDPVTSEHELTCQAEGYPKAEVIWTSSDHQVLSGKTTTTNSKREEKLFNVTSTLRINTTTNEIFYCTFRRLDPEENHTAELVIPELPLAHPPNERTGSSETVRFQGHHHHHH
Procedure, shortened: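 Soluble PD-1-Ig binding to PD-L1-His measured by HTRF in dPBS with 0.1% BSA and 0.05% Tween-20. Detection used europium cryptate anti-Ig antibody (1 nM final) and APC anti-His antibody (20 nM final) added on top of the binding reaction.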

[1] = molecular target: T2, LK35.2-hPD-L1 cells / PE-labeled PD-1-Ig (Homo sapiens, UniProt Q9NZQ7); assay: LK35.2-hPD-L1 cell binding high-content screening assay; type: cell-based; settings: cell binding assay, cell line not given
T2 construct: expressed in transfected cells; host or cells: LK35.2 mouse B cell line
T2 sequence (Q9NZQ7 19-290): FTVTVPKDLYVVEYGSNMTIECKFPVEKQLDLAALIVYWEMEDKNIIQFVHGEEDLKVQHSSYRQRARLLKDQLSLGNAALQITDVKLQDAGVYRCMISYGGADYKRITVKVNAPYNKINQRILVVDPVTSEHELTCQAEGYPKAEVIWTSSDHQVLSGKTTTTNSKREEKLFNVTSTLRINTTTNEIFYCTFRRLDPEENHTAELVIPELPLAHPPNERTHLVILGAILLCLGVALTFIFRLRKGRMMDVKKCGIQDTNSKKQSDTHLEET
Procedure, shortened: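 Binding of PE-conjugated human PD-1-Ig (1 nM final) to human PD-L1 stably expressed on a mouse B-cell line (LK35.2) was measured by high-content imaging after washes. Compound and labeled PD-1-Ig were co-incubated 1 h at 37 °C with cells in RPMI/10% FCS.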

[2] = cluster symbol, read-out: HTRF IC50 cluster
[3] = cluster symbol, read-out: CBA IC50 cluster
[4] = numeric value, read-out: HTRF IC50 values
[5] = numeric value, read-out: CBA IC50 values

| pIC50 (Human PD-L1/PD-1; [2]) | pIC50 [1, 3] | pIC50 (Human PD-L1/PD-1; [4]) | pIC50 [1, 5] | SMILES |
| --- | --- | --- | --- | --- |
| 8.17 to 9.41 | 7.14 to 8.32 | – | – | CCCC[C@H]1C(=O)N(C)[C@@H](CCCC)C(=O)N[C@@H](CCCNC(=N)N)C(=O)NC(C(=O)NCC(N)=O)CCSCC(=O)N[C@@H](Cc2ccc(O)cc2)C(=O)N(C)[C@@H](C)C(=O)N[C@@H](CC(N)=O)C(=O)N2CCC[C@H]2C(=O)N[C@@H](Cc2cnc[nH]2)C(=O)N[C@@H](CC(C)C)C(=O)N2C[C@H](O)C[C@H]2C(=O)N[C@@H](Cc2c[nH]c3ccccc23)C(=O)N[C@@H](CO)C(=O)N[C@@H](Cc2csc3ccccc23)C(=O)N1C (stereo partly shown) [Example 9020] ({CH2CO}-Y[NMeA]NPHL[Hyp]WS[Bta][NMeNle][NMeNle]R[ξhCys]G-NH2; thioether N-14) |
| 7.52 to 8.17 | < 7.13 | – | – | CCCC[C@H]1C(=O)N(C)[C@@H](CCCC)C(=O)N[C@@H](CCCNC(=N)N)C(=O)NC(C(=O)NCC(N)=O)CCSCC(=O)N[C@@H](Cc2ccc(O)cc2)C(=O)N(C)[C@@H](C)C(=O)N[C@@H](CC(N)=O)C(=O)N2CCC[C@H]2C(=O)N[C@@H](Cc2cnc[nH]2)C(=O)N[C@@H](CC(C)C)C(=O)N2C[C@H](O)C[C@H]2C(=O)N[C@@H](Cc2c[nH]c3ccccc23)C(=O)N[C@@H](CO)C(=O)N[C@@H](Cc2c[nH]c3ccccc23)C(=O)N1C (stereo partly shown) [Example 9021] ({CH2CO}-Y[NMeA]NPHL[Hyp]WSW[NMeNle][NMeNle]R[ξhCys]G-NH2; thioether N-14) |
| 8.17 to 9.41 | 8.33 to 9.80 | – | – | CCCC[C@H]1C(=O)N(C)[C@@H](CCSC)C(=O)N[C@@H](CCCNC(=N)N)C(=O)NC(C(=O)NCC(N)=O)CSCC(=O)N[C@@H](Cc2ccc(O)cc2)C(=O)N(C)[C@@H](C)C(=O)N[C@@H](CC(N)=O)C(=O)N2CCC[C@H]2C(=O)N[C@@H](Cc2cnc[nH]2)C(=O)N[C@@H](CC(C)C)C(=O)N2CCC[C@H]2C(=O)N[C@@H](Cc2c[nH]c3ccccc23)C(=O)N[C@@H](CO)C(=O)N[C@@H](Cc2csc3ccccc23)C(=O)N1C (stereo partly shown) [Example 9022] ({CH2CO}-Y[NMeA]NPHLPWS[Bta][NMeNle][NMeM]R[ξC]G-NH2; thioether N-14) |
| 8.17 to 9.41 | 8.33 to 9.80 | – | – | CCCC[C@H]1C(=O)N(C)[C@@H](CCSC)C(=O)N[C@@H](CCCNC(=N)N)C(=O)NC(C(=O)NCC(N)=O)CSCC(=O)N[C@@H](Cc2ccc(O)cc2)C(=O)N(C)[C@@H](C)C(=O)N[C@@H](CC(N)=O)C(=O)N2CCC[C@H]2C(=O)N[C@@H](Cc2cnc[nH]2)C(=O)N[C@@H](CC(C)C)C(=O)N2C[C@H](O)C[C@H]2C(=O)N[C@@H](Cc2c[nH]c3ccccc23)C(=O)N[C@@H](CO)C(=O)N[C@@H](Cc2csc3ccccc23)C(=O)N1C (stereo partly shown) [Example 9023] ({CH2CO}-Y[NMeA]NPHL[Hyp]WS[Bta][NMeNle][NMeM]R[ξC]G-NH2; thioether N-14) |
| 8.17 to 9.41 | 8.33 to 9.80 | – | – | CCCC[C@H]1C(=O)N(C)[C@@H](CCSC)C(=O)N[C@@H](CCCNC(=N)N)C(=O)NC(C(=O)NCC(N)=O)CSCC(=O)N[C@@H](Cc2ccc(O)cc2)C(=O)N(C)[C@@H](C)C(=O)N[C@@H](CC(N)=O)C(=O)N2CCC[C@H]2C(=O)N[C@@H](Cc2cnc[nH]2)C(=O)N[C@@H](CC(C)C)C(=O)N2C[C@H](O)C[C@H]2C(=O)N[C@@H](Cc2c[nH]c3ccccc23)C(=O)N[C@@H](CO)C(=O)N[C@@H](Cc2c[nH]c3ccccc23)C(=O)N1C (stereo partly shown) [Example 9024] |
| 8.17 to 9.41 | 8.33 to 9.80 | – | – | CCCC[C@H]1C(=O)N[C@@H](CCCNC(=N)N)C(=O)NC(C(=O)NCC(N)=O)CSCC(=O)N[C@@H](Cc2ccc(O)cc2)C(=O)N(C)[C@@H](C)C(=O)N[C@@H](CC(N)=O)C(=O)N2CCC[C@H]2C(=O)N[C@@H](Cc2cnc[nH]2)C(=O)N[C@@H](CC(C)C)C(=O)N2C[C@H](O)C[C@H]2C(=O)N[C@@H](Cc2c[nH]c3ccccc23)C(=O)N[C@@H](CO)C(=O)N[C@@H](Cc2csc3ccccc23)C(=O)N(C)[C@@H](CCSC)C(=O)N1C (stereo partly shown) [Example 9025] ({CH2CO}-Y[NMeA]NPHL[Hyp]WS[Bta][NMeM][NMeNle]R[ξC]G-NH2; thioether N-14) |

Second part, the compound before the results:

| SMILES | pIC50 (Human PD-L1/PD-1; [2]) | pIC50 [1, 3] | pIC50 (Human PD-L1/PD-1; [4]) | pIC50 [1, 5] |
| --- | --- | --- | --- | --- |
| CCCC[C@H]1C(=O)N(C)[C@@H](CCCC)C(=O)N[C@@H](CCCNC(=N)N)C(=O)NC(C(=O)NCC(N)=O)CSCC(=O)N[C@@H](Cc2ccc(O)cc2)C(=O)N(C)[C@@H](C)C(=O)N[C@@H](CC(N)=O)C(=O)N2C[C@H](O)C[C@H]2C(=O)N[C@@H](Cc2cnc[nH]2)C(=O)N[C@@H](CC(C)C)C(=O)N2C[C@H](O)C[C@H]2C(=O)N[C@@H](Cc2c[nH]c3ccccc23)C(=O)N[C@@H](CO)C(=O)N[C@@H](Cc2csc3ccccc23)C(=O)N1C (stereo partly shown) [Example 9012] ({CH2CO}-Y[NMeA]N[Hyp]HL[Hyp]WS[Bta][NMeNle][NMeNle]R[ξC]G-NH2; thioether N-14) | 7.52 to 8.17 | 8.33 to 9.80 | – | – |
| CCCC[C@H]1C(=O)N(C)[C@@H](CCCC)C(=O)N[C@@H](CCCNC(=N)N)C(=O)NC(C(=O)NCC(N)=O)CSCC(=O)N[C@@H](Cc2ccc(O)cc2)C(=O)N(C)[C@@H](C)C(=O)N[C@@H](CC(N)=O)C(=O)N2C[C@H](O)C[C@H]2C(=O)N[C@@H](Cc2cnc[nH]2)C(=O)N[C@@H](CC(C)C)C(=O)N2C[C@H](O)C[C@H]2C(=O)N[C@@H](Cc2c[nH]c3ccccc23)C(=O)N[C@@H](CO)C(=O)N[C@@H](Cc2c[nH]c3ccccc23)C(=O)N1C (stereo partly shown) [Example 9013] ({CH2CO}-Y[NMeA]N[Hyp]HL[Hyp]WSW[NMeNle][NMeNle]R[ξC]G-NH2; thioether N-14) | – | – | 8.09 | 8.22 |
| CCCC[C@H]1C(=O)N(C)[C@@H](CCCC)C(=O)N[C@@H](CCCNC(=N)N)C(=O)NC(C(=O)NCC(N)=O)CSCC(=O)N[C@@H](Cc2ccc(O)cc2)C(=O)N(C)[C@@H](C)C(=O)N[C@@H](CC(N)=O)C(=O)N2CCC[C@H]2C(=O)N[C@@H](Cc2cnc[nH]2)C(=O)N[C@@H](CC(C)C)C(=O)N2[C@@H](C)CC[C@H]2C(=O)N[C@@H](Cc2c[nH]c3ccccc23)C(=O)N[C@@H](CO)C(=O)N[C@@H](Cc2c[nH]c3ccccc23)C(=O)N1C (stereo partly shown) [Example 9014] | 8.17 to 9.41 | 8.33 to 9.80 | – | – |
| CCCC[C@H]1C(=O)N(C)[C@@H](CCCC)C(=O)N[C@@H](CCCNC(=N)N)C(=O)NC(C(=O)NCC(N)=O)CSCC(=O)N[C@@H](Cc2ccc(O)cc2)C(=O)N(C)[C@@H](C)C(=O)N[C@@H](CC(N)=O)C(=O)N2CCC[C@H]2C(=O)N[C@@H](Cc2cnc[nH]2)C(=O)N[C@@H](CC(C)C)C(=O)N2[C@@H](C)CC[C@H]2C(=O)N[C@@H](Cc2c[nH]c3ccccc23)C(=O)N[C@@H](CO)C(=O)N[C@@H](Cc2csc3ccccc23)C(=O)N1C (stereo partly drawn) [Example 9015] ({CH2CO}-Y[NMeA]NPHL[Pro(5S-Me)]WS[Bta][NMeNle][NMeNle]R[ξC]G-NH2; thioether N-14) | 7.52 to 8.17 | 8.33 to 9.80 | – | – |
| CCCC[C@H]1C(=O)N(C)[C@@H](CCCC)C(=O)N[C@@H](CCCNC(=N)N)C(=O)NC(C(=O)NCC(N)=O)CSCC(=O)N[C@@H](Cc2ccc(O)cc2)C(=O)N(C)[C@@H](C)C(=O)N[C@@H](CC(N)=O)C(=O)N2[C@@H](C)CC[C@H]2C(=O)N[C@@H](Cc2cnc[nH]2)C(=O)N[C@@H](CC(C)C)C(=O)N2CCC[C@H]2C(=O)N[C@@H](Cc2c[nH]c3ccccc23)C(=O)N[C@@H](CO)C(=O)N[C@@H](Cc2csc3ccccc23)C(=O)N1C (stereo partly drawn) [Example 9016] ({CH2CO}-Y[NMeA]N[Pro(5S-Me)]HLPWS[Bta][NMeNle][NMeNle]R[ξC]G-NH2; thioether N-14) | – | – | 8.23 | 8.48 |
| CCCC[C@H]1C(=O)N(C)[C@@H](CCCC)C(=O)N[C@@H](CCCNC(=N)N)C(=O)NC(C(=O)NCC(N)=O)CSCC(=O)N[C@@H](Cc2ccc(O)cc2)C(=O)N(C)[C@@H](C)C(=O)N[C@@H](CC(N)=O)C(=O)N2[C@@H](C)CC[C@H]2C(=O)N[C@@H](Cc2cnc[nH]2)C(=O)N[C@@H](CC(C)C)C(=O)N2CCC[C@H]2C(=O)N[C@@H](Cc2c[nH]c3ccccc23)C(=O)N[C@@H](CO)C(=O)N[C@@H](Cc2c[nH]c3ccccc23)C(=O)N1C (stereo partly drawn) [Example 9017] ({CH2CO}-Y[NMeA]N[Pro(5S-Me)]HLPWSW[NMeNle][NMeNle]R[ξC]G-NH2; thioether N-14) | 7.52 to 8.17 | 7.14 to 8.32 | – | – |
| CCCC[C@H]1C(=O)N(C)[C@@H](CCCC)C(=O)N[C@@H](CCCNC(=N)N)C(=O)NC(C(=O)NCC(N)=O)CCSCC(=O)N[C@@H](Cc2ccc(O)cc2)C(=O)N(C)[C@@H](C)C(=O)N[C@@H](CC(N)=O)C(=O)N2CCC[C@H]2C(=O)N[C@@H](Cc2cnc[nH]2)C(=O)N[C@@H](CC(C)C)C(=O)N2CCC[C@H]2C(=O)N[C@@H](Cc2c[nH]c3ccccc23)C(=O)N[C@@H](CO)C(=O)N[C@@H](Cc2csc3ccccc23)C(=O)N1C (stereo partly shown) [Example 9018] ({CH2CO}-Y[NMeA]NPHLPWS[Bta][NMeNle][NMeNle]R[ξhCys]G-NH2; thioether N-14) | 7.52 to 8.17 | < 7.13 | – | – |
| CCCC[C@H]1C(=O)N(C)[C@@H](CCCC)C(=O)N[C@@H](CCCNC(=N)N)C(=O)NC(C(=O)NCC(N)=O)CCSCC(=O)N[C@@H](Cc2ccc(O)cc2)C(=O)N(C)[C@@H](C)C(=O)N[C@@H](CC(N)=O)C(=O)N2CCC[C@H]2C(=O)N[C@@H](Cc2cnc[nH]2)C(=O)N[C@@H](CC(C)C)C(=O)N2CCC[C@H]2C(=O)N[C@@H](Cc2c[nH]c3ccccc23)C(=O)N[C@@H](CO)C(=O)N[C@@H](Cc2c[nH]c3ccccc23)C(=O)N1C (stereo partly shown) [Example 9019] ({CH2CO}-Y[NMeA]NPHLPWSW[NMeNle][NMeNle]R[ξhCys]G-NH2; thioether N-14) | 7.52 to 8.17 | < 7.13 | – | – |
